Source: patent publication US7947854B2, “Bis-cationic compounds and use thereof” (The University of Sydney, priority 2003, dated 2011)
Values joined by “and” are separate entries in the source; they are usually repeats but may differ in a detail not shown here. Identical values can stand only once. Marks after values point to notes of the source that are not given here.

Experiments:
[1] = test system: Cryptococcus neoformans ATCC 90112; experiment: In vitro antifungal activity, yeasts, NCCLS M27-A; assay type: cell-based; details: Cryptococcus neoformans, ATCC90112; Table 9
Excerpt: (§1) The assay used for yeasts (Candida; Cryptococcus) is that of the National Committee for Clinical Laboratory Standards. 1997. Reference Method for Broth Dilution Antifungal Susceptibility Testing of Yeasts: Approved Standard. NCCLS document M27-A.Villanova, Pa., USA as published in Ghannoum, M. A., A. S. Ibrahim, Y. Fu, M. C. Shafiq, J. E Edwards, Jr. and R. S. Criddle. 1992. Susceptibility testing of Cryptococcus neoformans: A microdilution technique. J. Clin. Microbiol. 30:2881-2886.

[2] = test system: Candida albicans ATCC 10231; experiment: In vitro antifungal activity, yeasts, NCCLS M27-A; assay type: cell-based; details: Candida albicans, ATCC10231; Table 9
Excerpt: as §1

[3] = test system: cytosolic phospholipase B (PLB activity); experiment: Radiometric assay, cytosolic PLB activity; assay type: biochemical, Cryptococcus neoformans H99; details: pH 4
Protocol: Fungal isolates and media. […] Isolate H99 was kindly supplied by Dr. Gary Cox (Duke University Medical Center, Durham, N.C., USA), and subcultured onto Sabouraud dextrose agar (SDA) at 30° C.
Cellular disruption to prepare membrane and cytosolic fractions. The cell pellet from the preparation of the supernatant, above, was also frozen at −70° C. After washing twice with imidazole buffer, it was disrupted in the presence of a protease inhibitor cocktail (P 8215 for fungal and yeast cells; 4-(2-aminoethyl)benzenesulfonyl fluoride hydrochloride, 100 mM, 1,10-phenanthroline, 500 mM, pepstatin A, 2.2 mM, E-64, 1.4 mM; Sigma) in a MiniBeadbeater-8 Cell Disrupter (MBB-8; Daintree Scientific, Tasmania, Australia) for three cycles of 1 min, alternating with a 1 min cooling period on ice. The homogenate was centrifuged at 14,000 g for 15 min to obtain the membrane (pellet) and the cytosolic (supernatant) fractions.
Radiometric assay method for phospholipases. Enzyme activities were measured as described previously in a final volume of 125 μL at 37° C. For the determination of secreted PLB activity, carrier dipalmitoyl phosphatidylcholine (DPPC, final concentration 800 μM) and 1,2-di[1-^14C] palmitoyl phosphatidylcholine (20,000 dpm) were dried under nitrogen and suspended in 125 mM imidazole acetate buffer (assay buffer, pH 4.0) by sonication using a Branson 450 sonifier. The reaction time was 22 min, using 1 μg total protein and PLB activity was determined by the rate of decrease of the radiolabelled PC substrate, with appearance of the label in free fatty acid. This assay also simultaneously allows for the determination of phospholipase A, C and D activities. These activities were measured by the appearance of radiolabel from PC in Lyso PC, diacylglycerol and phosphatidic acid, respectively.
All reactions were terminated by adding 0.5 mL of chloroform:methanol (2:1 v/v). The reaction products were extracted by the method as disclosed in Bligh, E. C. and W. J. Dyer. 1959 ‘A rapid method of total lipid extraction and purification.’ Can. J. Biochem. Physiol. 37:911-917, separated by TLC and quantified as previously described. In the case of PLC activity, the TLC plates were developed in petroleum ether (BP 60-80° C.): diethyl ether: acetic acid (90:15:1, v/v/v) instead of chloroform:methanol:water (65:25:4, v/v/v).
All experiments were carried out in duplicate or triplicate. The effects of pH on the various phospholipase activities were measured using 50 mM final concentration of imidazole-acetate buffer (pH range 3-5), MES buffer (pH range 6-8) and glycine buffer (pH 9-10). Controls for non-enzymic breakdown of substrates were included at all pH values. Cations, Triton X-100 and metal chelators were made up as stock solutions in water and diluted to the final concentration in the appropriate assay buffer.
Preparation of inhibitors and use in assays. The following compounds were tested (for structures, see FIG. 2): compound 1, 1,12-bis(tributylphosphonium)dodecane dibromide (Fluka AG, Buchs, Switzerland); compound 2, 1,10-bis(tributylammonium)-decane dibromide; compound 3, 1,12-bis(tributylammonium)do-decane dibromide (both synthesised in-house); compound 4, 1,10-bis(trimethylammonium)decane dibromide [“decamethonium”] (Sigma, St. Louis Mo., USA). All compounds were prepared as stock solutions of 700 μM in assay buffer containing 5 mM EDTA, which was then diluted serially with buffer to obtain solutions of 70, 7, 0.7 and 0.07 μM. In each assay, 45 μL of these solutions was used, and the final volume of 125 μL was made up of substrate, enzyme and buffer. The radiometric assay was carried out as above.

Compound: CCCC[N+](CCCC)(CCCC)CCCCCCCCCCCC[N+](CCCC)(CCCC)CCCC [1,12-Bis-(tributylammonium)dodecane dichloride]
- MIC [1]: 1.3 µg/mL and 2.2 µM
- MIC [2]: 2.6 µg/mL and 4.4 µM

Compound: CCCC[P+](CCCC)(CCCC)CCCCCCCCCCCC[P+](CCCC)(CCCC)CCCC [Compound 1, 1,12-bis(tributylphosphonium)dodecane dibromide]
- % Inhibition PLB, Cytosolic Enzyme ([3]; 2.5 μM): 0%
- % Inhibition PLB, Cytosolic Enzyme ([3]; 25 μM): 0%
- % Inhibition PLB, Cytosolic Enzyme ([3]; 250 μM): 41.3* %
